{
  "source": "ChEMBL document CHEMBL1157159",
  "about": "“Ester derivatives of gallic acid with potential toxicity toward L1210 leukemia cells” (Bioorg Med Chem, 2008)",
  "key": {"L1210 [1]": {"tested_on": "L1210", "experiment": "Cytotoxicity against mouse L1210 cells after 48 hrs by MTT assay", "assay_type": "functional, cell-based", "details": "L1210, 48 h"}, "L1210 [2]": {"tested_on": "L1210", "experiment": "Cytotoxicity against mouse L1210 cells after 72 hrs by MTT assay", "assay_type": "functional, cell-based", "details": "L1210, 72 h"}, "CCRF-CEM [3]": {"tested_on": "CCRF-CEM", "experiment": "Cytotoxicity against human CEM cells after 24 hrs by MTT assay", "assay_type": "functional, cell-based"}, "CCRF-CEM [4]": {"tested_on": "CCRF-CEM", "experiment": "Cytotoxicity against human CEM cells after 72 hrs by MTT assay", "assay_type": "functional, cell-based"}, "L1210 [5]": {"tested_on": "L1210", "experiment": "Decrease in mitochondrial glutathione level in mouse L1210 cells", "assay_type": "functional, cell-based"}, "L1210 [6]": {"tested_on": "L1210", "experiment": "Decrease in cytoplasmic glutathione level in mouse L1210 cells at 100 uM", "assay_type": "functional", "parameters": "scale not given: the % may be the effect or the level left"}, "[7]": {"experiment": "Genotoxicity against african green monkey VERO cells", "assay_type": "toxicity, cell-based", "details": "African green monkey (Chlorocebus sabaeus)"}, "L1210 [8]": {"tested_on": "L1210", "experiment": "Decrease in cytoplasmic glutathione level in mouse L1210 cells", "assay_type": "functional, cell-based"}, "Vero": {"tested_on": "Vero", "experiment": "Cytotoxicity against african green monkey VERO cells", "assay_type": "cell-based", "details": "Chlorocebus sabaeus"}, "L1210 [9]": {"tested_on": "L1210", "experiment": "Induction of apoptosis in mouse L1210 cells assessed as internucleosomal breakdown of DNA chromatin at 30 uM", "assay_type": "functional, cell-based"}, "CCRF-CEM [10]": {"tested_on": "CCRF-CEM", "experiment": "Induction of apoptosis in human CEM cells assessed as internucleosomal breakdown of DNA chromatin at 30 uM", "assay_type": "functional, cell-based"}, "L1210 [11]": {"tested_on": "L1210", "experiment": "Induction of apoptosis in mouse L1210 cells assessed as internucleosomal breakdown of DNA chromatin at 100 uM", "assay_type": "functional, cell-based"}, "CCRF-CEM [12]": {"tested_on": "CCRF-CEM", "experiment": "Induction of apoptosis in human CEM cells assessed as internucleosomal breakdown of DNA chromatin at 100 uM", "assay_type": "functional, cell-based"}},
  "note": "Activity calls are given as the source filed them. The rule behind the calls is not given here.",
  "data": [
    {"smiles": "O=C(O)c1cc(O)c(O)c(O)c1", "note": "[GALLIC ACID]", "values": [
      {"measurement": "IC50", "setting": "L1210 [1]", "value": "> 50", "unit": "µM"},
      {"measurement": "IC50", "setting": "L1210 [2]", "value": 50, "unit": "µM"},
      {"measurement": "IC50", "setting": "CCRF-CEM [3]", "value": "> 50", "unit": "µM"},
      {"measurement": "IC50", "setting": "CCRF-CEM [4]", "value": "> 50", "unit": "µM"},
      {"measurement": "Activity", "setting": "L1210 [5]", "value": "Active"},
      {"measurement": "Activity", "setting": "L1210 [6]", "value": 75, "unit": "%"},
      {"measurement": "IC50", "setting": "[7]", "value": "> 299", "unit": "µM"},
      {"measurement": "Activity", "setting": "L1210 [8]", "value": "Active"},
      {"measurement": "IC50", "setting": "Vero", "value": "> 1", "unit": "µM"},
      {"measurement": "Activity", "setting": "L1210 [9]", "value": "Active"},
      {"measurement": "Activity", "setting": "CCRF-CEM [10]", "value": "Active"},
      {"measurement": "Activity", "setting": "L1210 [11]", "value": "Active"},
      {"measurement": "Activity", "setting": "CCRF-CEM [12]", "value": "Active"}
    ]}
  ]
}
